molecular target: c-MET (Homo sapiens, UniProt P08581); experiment: Biochemical kinase assay (33P-ATP, filter-binding); settings: radiometric 33P-ATP filter-binding kinase reaction, 20 min preincubation, 2 hours at room temperature
Protocol: Reaction Buffer: 20 mM Hepes (pH 7.5), 10 mM MgCl2, 1 mM EGTA, 0.02%, Brij35, 0.02 mg/mL BSA, 0.1 mM Na3VO4, 2 mM DTT and 1% DMSO.
Required cofactors were added individually to each kinase reaction.
The testing compounds were dissolved in 100% DMSO to specific concentration. The serial dilution was conducted by Integra Viaflo Assist in DMSO.
• 1. Prepare substrate in freshly prepared Reaction Buffer. • 2. Deliver any required cofactors to the substrate solution above. • 3. Deliver kinase into the substrate solution and gently mix. • 4. Deliver compounds in 100% DMSO into the kinase reaction mixture by Acoustic technology (Echo550; nanoliter range), incubate for 20 min at room temp. • 5. Deliver ^33P-ATP (Specific activity 10 μCi/μL) into the reaction mixture to initiate the reaction. • 6. Incubate for 2 hours at room temperature. • 7. Detect radioactivity by filter-binding method. • 8. Kinase activity data were expressed as the percent remaining kinase activity in test samples compared to vehicle (DMSO) reactions. IC50 values and curve fits were obtained using Prism (GraphPad Software) (Table 1).

c-MET, sequence (P08581 25-1390): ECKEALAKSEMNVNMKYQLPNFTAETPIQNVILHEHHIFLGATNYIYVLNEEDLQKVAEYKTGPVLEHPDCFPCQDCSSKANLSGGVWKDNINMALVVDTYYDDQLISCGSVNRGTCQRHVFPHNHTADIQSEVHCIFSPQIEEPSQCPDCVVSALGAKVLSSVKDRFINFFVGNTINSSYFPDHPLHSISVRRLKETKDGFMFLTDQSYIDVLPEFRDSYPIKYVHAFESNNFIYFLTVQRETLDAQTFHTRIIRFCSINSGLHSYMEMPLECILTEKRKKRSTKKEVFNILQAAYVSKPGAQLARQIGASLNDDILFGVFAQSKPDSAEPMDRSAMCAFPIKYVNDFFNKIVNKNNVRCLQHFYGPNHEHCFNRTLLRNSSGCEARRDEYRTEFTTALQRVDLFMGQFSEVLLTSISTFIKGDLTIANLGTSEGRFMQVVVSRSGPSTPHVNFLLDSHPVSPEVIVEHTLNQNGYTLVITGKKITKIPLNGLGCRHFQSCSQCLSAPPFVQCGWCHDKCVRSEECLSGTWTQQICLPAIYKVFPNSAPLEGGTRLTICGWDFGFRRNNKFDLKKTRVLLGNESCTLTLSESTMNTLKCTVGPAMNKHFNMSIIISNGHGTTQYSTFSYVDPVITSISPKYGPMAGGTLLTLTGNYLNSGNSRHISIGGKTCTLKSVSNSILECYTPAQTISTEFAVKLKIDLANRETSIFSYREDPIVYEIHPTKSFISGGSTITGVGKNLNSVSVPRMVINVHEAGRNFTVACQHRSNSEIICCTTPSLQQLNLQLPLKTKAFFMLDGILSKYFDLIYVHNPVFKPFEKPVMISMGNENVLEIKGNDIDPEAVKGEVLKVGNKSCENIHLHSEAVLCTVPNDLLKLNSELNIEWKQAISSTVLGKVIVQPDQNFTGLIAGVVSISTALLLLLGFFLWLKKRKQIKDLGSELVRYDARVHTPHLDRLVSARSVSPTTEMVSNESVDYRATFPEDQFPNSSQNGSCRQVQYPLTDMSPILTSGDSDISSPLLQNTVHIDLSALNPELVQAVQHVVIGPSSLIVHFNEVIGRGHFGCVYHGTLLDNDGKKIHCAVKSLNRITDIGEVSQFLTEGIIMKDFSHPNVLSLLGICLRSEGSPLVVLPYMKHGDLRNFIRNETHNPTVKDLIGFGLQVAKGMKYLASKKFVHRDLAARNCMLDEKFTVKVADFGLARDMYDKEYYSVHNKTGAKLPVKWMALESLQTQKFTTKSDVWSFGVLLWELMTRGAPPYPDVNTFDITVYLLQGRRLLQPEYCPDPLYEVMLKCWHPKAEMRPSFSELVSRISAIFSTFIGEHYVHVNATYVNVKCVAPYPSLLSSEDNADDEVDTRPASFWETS

SMILES | IC50
CP(C)(=O)c1ccc(-c2cnc3nnn(Cc4ccc5ncccc5c4)c3n2)cc1 [Example 1, Dimethyl(4-(1-(quinolin-6-ylmethyl)-1H-[1,2,3]triazolo[4,5-b]pyrazin-6-yl)phenyl)-phosphine oxide] | < 10 nM
CCOP(C)(=O)Cc1ccc(-c2cnc3nnn(Cc4ccc5ncccc5c4)c3n2)cc1 (stereo not shown) [Example 2, Ethyl methyl(4-(1-(quinolin-6-ylmethyl)-1H-[1,2,3]triazolo[4,5-b]pyrazin-6-yl)benzyl)-phosphinate] | < 10 nM
CP(C)(=O)c1ccc(-c2cnc3nnn(Cc4ccc5ncccc5c4)c3n2)c(F)c1 [Example 4, (3-Fluoro-4-(1-(quinolin-6-ylmethyl)-1H-[1,2,3]triazolo[4,5-b]pyrazin-6-yl)phenyl)dimethylphosphine oxide] | 11 to 20 nM
CP(C)(=O)c1ccc(-c2cnc3nnn(Cc4ccc5ncccc5c4)c3n2)cc1F [Example 5, (2-Fluoro-4-(1-(quinolin-6-ylmethyl)-1H-[1,2,3]triazolo[4,5-b]pyrazin-6-yl)phenyl)dimethyl-phosphine Oxide] | < 10 nM
CP(C)(=O)c1cccc(-c2cnc3nnn(Cc4ccc5ncccc5c4)c3n2)c1 [Example 8, Dimethyl(3-(1-(quinolin-6-ylmethyl)-1H-[1,2,3]triazolo[4,5-b]pyrazin-6-yl)phenyl)phosphine Oxide] | 11 to 20 nM
CP(C)(=O)Cn1cc(-c2cnc3nnn(Cc4ccc5ncccc5c4)c3n2)cn1 [Example 9, Dimethyl((4-(1-(quinolin-6-ylmethyl)-1H-[1,2,3]triazolo[4,5-b]pyrazin-6-yl)-1H-pyrazol-1-yl)methyl)phosphine Oxide] | 21 to 100 nM
CP(C)(=O)c1ccc(Nc2cnc3nnn(Cc4ccc5ncccc5c4)c3n2)cc1 [Example 11, Dimethyl(4-((1-(quinolin-6-ylmethyl)-1H-[1,2,3]triazolo[4,5-b]pyrazin-6-yl)amino)phenyl)phosphine Oxide] | < 10 nM
CP(C)(=O)c1cccc(-c2ccc3nnc(C(F)(F)c4ccc5nccn5c4)n3n2)c1 [Example 13, (3-(3-(Difluoro(imidazo[1,2-a]pyridin-6-yl)methyl)-[1,2,4]triazolo[4,3-b]pyridazin-6-yl)phenyl)dimethylphosphine Oxide] | 21 to 100 nM
CC(c1ccc2nccn2c1)n1nnc2ncc(-c3ccc(P(C)(C)=O)cc3)nc21 (stereo not shown) [Example 15, (4-(1-(1-(Imidazo[1,2-a]pyridin-6-yl)ethyl)-1H-[1,2,3]triazolo[4,5-b]pyrazin-6-yl)phenyl)dimethylphosphine Oxide] | < 10 nM
CP(C)(=O)c1ccc(-c2cnc3nnn(Cc4ccc5c(c4)CCO5)c3n2)cc1 [Example 16, (4-(1-((2,3-Dihydrobenzofuran-5-yl)methyl)-1H-[1,2,3]triazolo[4,5-b]pyrazin-6-yl)phenyl)dimethylphosphine Oxide] | 11 to 20 nM
CP(C)(=O)c1ccc(-c2cnc3nnn(Cc4ccc5ncc(F)n5c4)c3n2)cc1 [Example 17, (4-(1-((3-Fluoroimidazo[1,2-a]pyridin-6-yl)methyl)-1H-[1,2,3]triazolo[4,5-b]pyrazin-6-yl)phenyl)dimethylphosphine Oxide] | 21 to 100 nM
CP(C)(=O)c1cnc2nnn(Cc3ccc4ncccc4c3)c2n1 [Example 18, Dimethyl(1-(quinolin-6-ylmethyl)-1H-[1,2,3]triazolo[4,5-b]pyrazin-6-yl)phosphine Oxide] | 1000 to 6000 nM
Cn1cc2cc(Cn3nnc4ncc(-c5ccc(P(C)(C)=O)c(F)c5)nc43)c(F)cc2n1 [Example 21, (2-fluoro-4-(1-((6-fluoro-2-methyl-2H-indazol-5-yl)methyl)-1H-[1,2,3]triazolo[4,5-b]pyrazin-6-yl)phenyl)-dimethylphosphine oxide] | < 10 nM

Next, values leading:

IC50 | SMILES
< 10 nM | CP(=O)(O)Cc1ccc(-c2cnc3nnn(Cc4ccc5ncccc5c4)c3n2)cc1 [Example 3, Methyl(4-(1-(quinolin-6-ylmethyl)-1H-[1,2,3]triazolo[4,5-b]pyrazin-6-yl)benzyl)-phosphinic Acid]
< 10 nM | CP(C)(=O)c1ccc(-c2cnc3nnn(Cc4ccc5nccn5c4)c3n2)cc1 [Example 6, (4-(1-(Imidazo[1,2-a]pyridin-6-ylmethyl)-1H-[1,2,3]triazolo[4,5-b]pyrazin-6-yl)phenyl)dimethylphosphine Oxide]
11 to 20 nM | CP(C)(=O)c1cccc(-c2cnc3nnn(Cc4ccc5nccn5c4)c3n2)c1 [Example 7, (3-(1-(Imidazo[1,2-a]pyridin-6-ylmethyl)-1H-[1,2,3]triazolo[4,5-b]pyrazin-6-yl)phenyl)-dimethylphosphine Oxide]
21 to 100 nM | CP(C)(=O)Cn1cc(-c2cnc3nnn(Cc4ccc5nccn5c4)c3n2)cn1 [Example 10, ((4-(1-(Imidazo[1,2-a]pyridin-6-ylmethyl)-1H-[1,2,3]triazolo[4,5-b]pyrazin-6-yl)-1H-pyrazol-1-yl)methyl)dimethylphosphine Oxide]
< 10 nM | CP(C)(=O)c1ccc(Nc2cnc3nnn(Cc4ccc5ncccc5c4)c3n2)cc1F [Example 12, (2-Fluoro-4-((1-(quinolin-6-ylmethyl)-1H-[1,2,3]triazolo[4,5-b]pyrazin-6-yl)amino)phenyl)dimethylphosphine Oxide]
1000 to 6000 nM | CP(C)(=O)c1ccc(-c2ccc3nnc(C(F)(F)c4ccc5nccn5c4)n3n2)cc1 [Example 14, (4-(3-(Difluoro(imidazo[1,2-a]pyridin-6-yl)methyl)-[1,2,4]triazolo[4,3-b]pyridazin-6-yl)phenyl)dimethylphosphine Oxide]
< 10 nM | CC(c1ccc2ncccc2c1)n1nnc2ncc(-c3ccc(P(C)(C)=O)cc3)nc21 (stereo not shown) [Example 19, Dimethyl(4-(1-(1-(quinolin-6-yl)ethyl)-1H-[1,2,3]triazolo[4,5-b]pyrazin-6-yl)phenyl)phosphine Oxide]
< 10 nM | Cn1cc2cc(Cn3nnc4ncc(-c5ccc(P(C)(C)=O)cc5)nc43)c(F)cc2n1 [Example 20, (4-(1-((6-Fluoro-2-methyl-2H-indazol-5-yl)methyl)-1H-[1,2,3]triazolo[4,5-b]pyrazin-6-yl)phenyl)dimethylphosphine Oxide]
< 10 nM | Cn1cc2cc(Cn3nnc4ncc(-c5ccc(P(C)(C)=O)c(F)c5)nc43)ccc2n1 [Example 22, (2-Fluoro-4-(1-((2-methyl-2H-indazol-5-yl)methyl)-1H-[1,2,3]triazolo[4,5-b]pyrazin-6-yl)phenyl)dimethylphosphine Oxide]
